According to PubChem BioAssay AID743039 (Broad Institute, 2013):
The source made the active and inactive calls.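 The calls were made as follows: active = fitted curve rises past 0.47 at a concentration no higher than the top valid tested dose; inconclusive = flat curve at a moderate level, or poor fit; inactive = the rest, including signal moving the wrong way.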

Tested on: compound-only thermal shift, SYPRO orange fluorescence, no protein
Assay: compound-only thermal shift interference, dose response, artefact control for FGF22 binder project, biophysical, SYPRO orange, qPCR instrument, dry powder samples (AID 743039)
Settings: at 0.16 µM

Thermal shift signal, higher = interference, inactive:
O=C(Nc1ccc(S(=O)(=O)N2CCCC2)cc1)c1cccs1 -0.157%, COc1cc(/C=N/NC(=O)c2cc3ccccc3[nH]2)ccc1O -0.114%, CCCNC(=O)COC(=O)c1ccccc1C(=O)N(C)C1CCCCC1 -0.157%, Cc1cc(C(=O)N/N=C/c2c[nH]c3ccccc23)cs1 0.145%, Cc1ccc(OCCCC(=O)Nc2ccc(S(=O)(=O)N3CCOCC3)cc2)cc1 -0.12%, CC(=O)Nc1ccc(NC(=O)Nc2ccccc2)cc1 0.246%, O=C(N/N=C/c1cccc(Oc2ccccc2)c1)c1cccc(O)c1 -0.026%, Cc1cc(NC(=O)Nc2ccc3c(ccn3C)c2)sn1 0.052%, O=C(NCCc1c[nH]c2ccccc12)c1ccc(Cl)cc1 0.048%, O=C(Nc1cc(Cl)cc(Cl)c1)N[C@@H]1CC[C@@H](CCNS(=O)(=O)c2cccc(F)c2)O[C@H]1CO 0.061%, O=C(N/N=C/c1ccc(C(F)(F)F)cc1)c1ccc(O)cc1 -0.028%, CC(=O)c1ccc(NC(=O)Nc2cccnc2)cc1 0.235%, O=C(N/N=C/c1c[nH]c2ccccc12)c1cccs1 -0.182%, CCc1cc(-c2[nH]ncc2-c2ccc3c(c2)OCCO3)c(O)cc1O -0.049%, Cc1[nH]c2ccccc2c1C(=O)NS(=O)(=O)Nc1ccc(Cl)cc1 -0.148%, COc1ccc(C)cc1NS(=O)(=O)c1ccc(NS(=O)(=O)c2ccc(NC(C)=O)cc2)cc1 -0.005%, O=C(Nc1ccc(S(=O)(=O)N2CCCC2)cc1)c1ccccc1 -0.209%, O=C(Nc1ccc(Cl)cc1)N[C@@H]1CC[C@@H](CCNS(=O)(=O)c2ccccc2F)O[C@H]1CO -0.043%, Nc1ccc(C(=O)N/N=C/c2c[nH]c3ccccc23)cc1 0.042%, CC(=O)Nc1cccc(NC(=O)c2ccc3[nH]c(C)c(C)c3c2)c1 -0.227%, CSc1ccc(/C=N/NC(=O)c2ccc3nc[nH]c3c2)cc1 0.305%, O=S1(=O)N=C(N(Cc2cccs2)c2ccc(O)cc2)c2ccccc21 0.057%, CCc1cc(-c2n[nH]c(C)c2-c2ccc3c(c2)OCCO3)c(O)cc1O -0.093%, COC(=O)C[C@H]1CC[C@@H]2[C@@H](COc3ccc(NC(=O)Nc4cccc(C#N)c4)cc3C(=O)N2C)O1 0.097%, O=S(=O)(Nc1nnc(C(F)(F)F)s1)c1ccc(Cl)cc1 -0.081%, COc1ccc(-c2nc(-c3ccc(O)cc3O)cs2)cc1OC 0.011%, O=C(Nc1cc(Cl)cc(Cl)c1)N[C@@H]1CC[C@@H](CCNS(=O)(=O)c2cccc(F)c2)O[C@@H]1CO 0.004%, O=C(Nc1nccs1)C1CC(=O)N(c2ccc(F)cc2)C1 (stereo not given) -0.148%, Nc1cccc(-c2nc3ccc(C(=O)c4ccccc4)cc3[nH]2)c1 0.145%, CC(C)c1c(C(=O)N/N=C/c2c[nH]c3ccccc23)nnn1-c1nonc1N -0.009%, O=C(Nc1ccc(S(=O)(=O)N2CCOCC2)cc1)c1ccc(F)cc1 -0.05%, Clc1ccc(Nc2ccc(NCc3ccccc3)nn2)cc1 -0.178%, Cc1[nH]c2ccc(C(=O)OCC(=O)Nc3cccc(S(N)(=O)=O)c3)cc2c1C -0.322%, COc1ccc(Nc2nc3ccc(OC)cc3s2)cc1 0.188%, CCNC(=O)C[C@@H]1CC[C@H]2[C@H](COc3ccc(NC(=O)Nc4ccc(Cl)cc4)cc3C(=O)N2C)O1 0.052%, O=C(N/N=C/c1c[nH]c2ccccc12)c1cccc(O)c1 0.355%, O=C(N/N=C/c1c[nH]c2ccccc12)c1ccc(O)c(O)c1 0.065%, Cc1ccn(-c2ccc(NC(=O)c3cccs3)cc2)n1 -0.057%, CCN1C/C(=C/c2cccs2)c2nc3ccccc3c(C(=O)O)c2C1 0.048%, Cc1ccc(S(=O)(=O)N2C[C@@H](O)COC[C@@H]3O[C@@H](CC(=O)NCc4ccc(Cl)c(Cl)c4)CC[C@H]32)cc1 0.045%, CCOc1cccc(C(=O)Nc2ccc3[nH]ncc3c2)c1 -0.066%, CCN1C(=O)C(CC(=O)Nc2ccc(F)cc2)N(Cc2ccc3c(c2)OCO3)C1=S (stereo not given) -0.165%, Cc1ccc(S(=O)(=O)N2C[C@H](O)COC[C@H]3O[C@H](CC(=O)NCc4ccc(Cl)c(Cl)c4)CC[C@@H]32)cc1 0.168%, CN(Cc1c(C(=O)N/N=C/c2ccc(O)cc2)nnn1-c1nonc1N)c1ccccc1 -0.045%, CC(=O)Nc1cccc(C(=O)N/N=C/c2c[nH]c3ccccc23)c1 0.019%, O=C(N/N=C/c1c[nH]c2ccccc12)c1cccc(Cl)c1 0.069%, O=C(C[C@H]1CC[C@@H]2[C@H](COC[C@H](O)CN2S(=O)(=O)c2cccc(Cl)c2)O1)Nc1ccccc1 -0.063%, O=C(O)Cc1ccc(NC(=O)c2ccc(Cl)c(Cl)c2)cc1 0.188%, COC(=O)C1=C(CS(=O)(=O)c2cc(OC)ccc2OC)NC(=O)NC1c1ccc(O)c(OC)c1 (stereo not given) -0.182%, COC(=O)C[C@H]1CC[C@@H]2[C@@H](COc3ccc(NC(=O)Nc4ccc(C#N)cc4)cc3C(=O)N2C)O1 0.237%
